Patent publication US10053497B2, “Therapeutic epitopes and uses thereof” (OXFORD UNIVERSITY INNOVATION LIMITED, priority 2002, dated 2018)

Tests used:
[1] = test system: PBMC from coeliac disease subjects; test: IFNγ ELISPOT with PBMC of coeliac disease subjects after bread/gluten challenge (agonist bioactivity of peptides); format: cell-based, human; details: for Dose response: n=8
[2] = test system: PBMC of HLA-DQ2+ coeliac subjects; test: IFNγ ELISpot, comprehensive gliadin epitope mapping in HLA-DQ2+ coeliac subjects after gluten challenge; format: cell-based, human; details: after gluten challenge
Outline: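 PBMC (2-8×10^5/well) from HLA-DQ2+ coeliac subjects on gluten-free diet were taken before and on day 6/7 after 3-day bread challenge. They were incubated overnight with 20mer peptides or pools (20 μg/ml each), ± tTG deamidation (tTG 64 μg/ml in wells), in RPMI/10% human AB serum. Net sfc/million minus blank; single-peptide responses as % of P04722 77-93 QE85.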

[3] = test system: PBMC from coeliac disease subjects; test: HLA class II restriction: IFNγ ELISPOT after preincubation of PBMC with anti-HLA-DR, -DQ, -DP antibodies; format: cell-based, human; details: PBMC day 6, long-term GFD; tTG-gliadin 100, peptide 50, PPD 5 mcg/ml
[4] = test system: PBMC of newly diagnosed coeliac subjects; test: IFNγ ELISpot in newly diagnosed coeliac disease: duration of gluten free diet before gluten challenge; format: cell-based, human
tTG = molecular target: T1, tTG (UniProt P08587); test: Deamidation of A-gliadin 56-75 by tTG (HPLC, amino acid sequencing); format: biochemical, guinea pig; details: tTG 50 μg/ml, 37° C., 2 hours
T1 construct: purchased Sigma T-5398
T1 sequence (P08587 1-690): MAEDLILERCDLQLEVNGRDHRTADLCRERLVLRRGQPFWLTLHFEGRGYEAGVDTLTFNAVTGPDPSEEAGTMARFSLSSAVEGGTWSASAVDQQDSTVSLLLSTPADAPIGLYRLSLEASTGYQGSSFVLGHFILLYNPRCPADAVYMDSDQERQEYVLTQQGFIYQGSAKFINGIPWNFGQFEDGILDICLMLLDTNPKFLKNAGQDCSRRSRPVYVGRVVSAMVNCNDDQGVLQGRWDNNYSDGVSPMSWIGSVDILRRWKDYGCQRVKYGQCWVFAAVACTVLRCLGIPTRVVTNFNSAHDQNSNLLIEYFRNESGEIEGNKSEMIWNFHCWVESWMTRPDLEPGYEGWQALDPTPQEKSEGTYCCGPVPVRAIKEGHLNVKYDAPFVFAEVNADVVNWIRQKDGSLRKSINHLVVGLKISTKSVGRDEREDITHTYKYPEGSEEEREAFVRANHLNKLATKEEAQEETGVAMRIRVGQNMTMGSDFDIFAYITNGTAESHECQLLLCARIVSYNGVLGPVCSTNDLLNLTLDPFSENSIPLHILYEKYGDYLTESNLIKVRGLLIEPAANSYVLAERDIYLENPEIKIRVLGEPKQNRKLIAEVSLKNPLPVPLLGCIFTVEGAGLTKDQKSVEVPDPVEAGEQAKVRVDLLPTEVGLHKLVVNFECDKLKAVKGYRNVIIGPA
Experimental: A-gliadin 56-75 […] (SEQ ID NO:5) (0.1 μM) was incubated with tTG (50 μg/ml) at 37° C. for 2 hours. A single product was identified and purified by reverse phase HPLC. Amino acid analysis allowed % deamidation (Q→E) of each Gln residue in A-gliadin 56-75 (SEQ ID NO:5) attributable to tTG to be calculated (vertical axis).
Coeliac disease subjects following a gluten free diet, consumed 4 slices of gluten-containing bread (50 g/slice, Sainsbury's “standard white sandwich bread”) daily for 3 or 10 days. EMA was assessed the week before and up to two months after commencing the bread challenge. […] Peptides were assessed in duplicate wells, and Mycobacterium tuberculosis purified protein derivative (PPD RT49) (Serum Institute; Copenhagen, Denmark) (20 μg/ml) was included as a positive control in all assays. […] Digestion of gliadin was verified by SDS-PAGE and protein concentration assessed. α-Chymotrypsin-digested gliadin (640 μg/ml) and synthetic gliadin peptides (15-mers: 160 μg/ml, other peptides: 0.1 mM) were individually treated with tTG (Sigma; T-5398) ([…]) in PBS+CaCl2 1 mM for 2 h at 37° C. […] Deamidation of glutamyl residues was defined as the amount (pmol) of glutamate recovered expressed as a percent of the combined amount of glutamine and glutamate recovered in cycles 2, 4, 8, 10, 15 and 17 of the amino acid sequencing. […]

[5] = test system: PBMC from coeliac subjects; test: Immunomagnetic bead depletion (CD4, CD8, β7, αE) of PBMC followed by IFNγ ELISpot; format: cell-based, human; details: 0.1 μM

QLQPFPQPELPYPQPQS [A-gliadin 57-73 QE65]
Dose response ([1]; 0.025 mcg/ml): 1 % G01E maximal response
Dose response ([1]; 0.05 mcg/ml): 8 % G01E maximal response
Dose response ([1]; 0.1 mcg/ml): 10 % G01E maximal response
Dose response ([1]; 0.25 mcg/ml): 22 % G01E maximal response
Dose response ([1]; 0.5 mcg/ml): 38 % G01E maximal response
Dose response ([1]; 1 mcg/ml): 43 % G01E maximal response
Dose response ([1]; 2.5 mcg/ml): 52 % G01E maximal response
Dose response ([1]; 5 mcg/ml): 70 % G01E maximal response
Dose response ([1]; 10 mcg/ml): 81 % G01E maximal response
ELISpot response as % A-gliadin 57-73 QE65, E-substituted ([1]; 25 mcg/ml, glutamate-substituted peptide, 4 subjects): 100%
Dose response ([1]; 25 mcg/ml): 95 % G01E maximal response
ELISpot response as % A-gliadin 57-73 QE65, Wild type ([1]; 25 mcg/ml, unmodified wild type peptide, 4 subjects, blank 5 (1)%): 18 (7) %
ELISpot response as % A-gliadin 57-73 QE65, Wildtype + tTG ([1]; 25 mcg/ml, wild type treated with tTG, 4 subjects): 87 (7) %
Bioactivity % of unmodified A-gliadin 57-73 QE65 (G) ([1]; 50 mcg/ml, PBMC from 8 subjects, blank 7.1%): (G) (mean 100%, 95% CI 97-104) and blank (no peptide, bl) (mean 7.1%,
Dose response ([1]; 50 mcg/ml): 90 % G01E maximal response
Dose response ([1]; 100 mcg/ml): 85 % G01E maximal response
Mean IFNγ ELISPOT response relative to the immunodominant epitope (Glu65) ([1]; A-gliadin 57-73 with the named amino acid at position 65, 50 μg/ml, 3 subjects, day 6): 100%
Elisopt response TG ([1]; peptide treated with transglutaminase, 3 subjects, value (range), A-gliadin 57-73 E65 = 100): 100(100)
γIFN ELISpot response after gluten challenge ([1]; relative to the dominant epitope = 100%): 100%
Share of peripheral blood T cells secreting IFN-γ in response to gliadin that recognise the epitope [2]: at least 40%
ELISpot response after preincubation with anti-HLA-DQ antibody (DQ-) [3]: 22 % inhibition
ELISpot response after preincubation with anti-HLA-DR antibody (DR-) [3]: 90 % inhibition
IFNγ ELISpot response, Day 0, 1 week gluten free diet ([4]; GFD: 1 week): 1 IFNγ specific spots/million PP
IFNγ ELISpot response, Day 6 of gluten challenge, 1 week gluten free diet ([4]; GFD: 1 week): 4 IFNγ specific spots/million PP
IFNγ ELISpot response, Day 0, 2 weeks gluten free diet ([4]; GFD: 2 weeks): 2 IFNγ specific spots/million PP
IFNγ ELISpot response, Day 6 of gluten challenge, 2 weeks gluten free diet ([4]; GFD: 2 weeks): 28 IFNγ specific spots/million PP
IFNγ ELISpot response, Day 0, 8 weeks gluten free diet ([4]; GFD: 8 weeks): 1 IFNγ specific spots/million PP
IFNγ ELISpot response, Day 6 of gluten challenge, 8 weeks gluten free diet ([4]; GFD: 8 weeks): 48 IFNγ specific spots/million PP
IFNγ ELISpot response, Day 0, no gluten free diet ([4]; GFD: none): 5 IFNγ specific spots/million PP
IFNγ ELISpot response, Day 6 of gluten challenge, no gluten free diet ([4]; GFD: none): 0 IFNγ specific spots/million PP

LQLQPFPQPQLPYPQPQSFP [A-gliadin 56-75]
Glutamine residue deamidated by tTG (tTG): Q65 (SEQ ID NO:5) was preferentially deamidated by tTG

LQLQPFPQPELPYPQPQSFP [tTG treated A-gliadin 56-75]
IFN-g ELISPOT response of CD8 depleted PBMC, Subject 4 [5]: 29 spot forming cells per million CD8 depleted PBMC
IFN-g ELISPOT response of CD8 depleted PBMC, Subject 6 [5]: 535 spot forming cells per million CD8 depleted PBMC
